“And” between values parts separate entries of the source, which are not always exact repeats. Identical values can stand only once. Like-named read-outs stand apart in the source and are kept apart here.
Key:
[1] = tested on: guinea pig; conditions: for erythema evaluation point, individual animal: group IV sensitized with DNCB; for ave. eval. (average of evaluation point) / positive ratio: positive comparison group IV sensitized with DNCB 0.1 w/v %
Experimental: Skin-Sensitize Test (Maximization Test)
This test is carried out by Juridical Foundation “Food and Medicine Safety Center” (Hatano-shi, Kanagawa) based on “Basic view about biological safety test necessary for petition of recognition of production (import) of medical device” (13.02.2003, Consideration of Medicine No. 0213001″ and “Reference materials regarding basic view of biological safety test” (19.03.2003, Examination of medical device No. 36).
Using methanol extraction of Verte Kimax 7th Sense, biological safety evaluation is obtained. And aiming to compare with Verte 710N, skin-sensitize test (maximization test) is carried out on a guinea pig using methanol extraction of Verte Kimax 7th Sense.
At the preparation of prescribing subject, methanol extract of Verte Kimax 7th Sense (hereinafter, shortened to 7th Sense-M) or methanol extract of Verte 710N (hereinafter, shortened to 710N-M) is suspended in ethanol by proportion of 1 mL to the extract obtained 1 g of analyte used for extraction, and 100 v/v % 7th Sense-M ethanol suspension and 100 v/v % 710N-M ethanol suspension are obtained. Further, BLANK obtained from methanol alone is poured into same amount of ethanol as used at the preparation of suspension of 7th Sense-M or 710N-M and 100 v/v % blank suspensions are prepared. In first skin-sensitize test, 100 v/v % 7th Sense-M ethanol suspension and 100 v/v % 710N-M ethanol suspension are replaced with same amount of olive oil, and 100 v/v % 7th Sense-M olive oil suspension and 100 v/v % 710N-M olive oil suspension are prepared. In second skin-sensitize test, 100 v/v % 7th Sense-M ethanol suspension and 100 v/v % 710N-M ethanol suspension are replaced with same amount of olive oil, and 100 v/v % 7th Sense-M olive oil suspension and 100 v/v % 710N-M olive oil suspension are prepared. In causing, 100 v/v % 7th Sense-M ethanol suspension and 100 v/v % 710N-M ethanol suspension are prepared by adding ethanol as stepwise. Further, 100 v/v % corresponding volume blank ethanol solution is used as is.
In first skin-sensitize test (treatment first day) 10 v/v % 7th Sense-M olive oil suspension or 10 v/v % 710N-M olive oil suspension and Freund's complete adjuvant are injected by intradermal injection in upper part of shoulder bone of a guinea pig. At 7 days after treatment, 10 v/v % sodium lauryl sulfate is open spread on region including intradermal injection part, and next day (8 days after treatment) 100 v/v % 7th Sense-M olive oil suspension or 100 v/v % 710N-M olive oil suspension is blockage patched to same region as second skin-sensitize test for 48 hours. In causing (22 days after treatment), 100, 20, 4, 0.8, and 0.16 v/v % ethanol suspension of 7th Sense-M or 710N-M and 100 v/v % corresponding volume BLANK ethanol solution are blockage patched for 24 hours.
Judgment is done according to judgment standard of Draize method after 24 hours and 48 hours from removal of patches.
(numbers of positive animal in group/numbers of animal in group)×100

[2] = Weight of individuals in the maximization test; assay type: in vivo, guinea pig
Text: Results by Weight of Individuals

[3] = causing conc. 0.01 w/v %, judge 24 hrs.
[4] = causing conc. 0.01 w/v %, judge 48 hrs.
[5] = causing conc. 0.1 w/v %, judge 24 hrs.
[6] = causing conc. 0.1 w/v %, judge 48 hrs.

Compound: O=[N+]([O-])c1ccc(Cl)c([N+](=O)[O-])c1 [DNCB, 1-chloro-2,4-dinitrobenzene]
- erythema evaluation point, individual animal ([1]; causing 0.01 w/v % DNCB, judge time 24 hrs.): 3 (4×) and 4
- erythema evaluation point, individual animal ([1]; causing 0.01 w/v % DNCB, judge time 48 hrs.): 3 (3×) and 4 (2×)
- erythema evaluation point, individual animal ([1]; causing 0.1 w/v % DNCB, judge time 24 hrs.): 4 (4×) and 3
- erythema evaluation point, individual animal ([1]; causing 0.1 w/v % DNCB, judge time 48 hrs.): 4
- ave. eval. (average of evaluation point) [1, 3]: 3.8
- positive ratio [1, 3]: 100
- ave. eval. (average of evaluation point) [1, 4]: 4.0
- positive ratio [1, 4]: 100
- ave. eval. (average of evaluation point) [1, 5]: 4.8
- positive ratio [1, 5]: 100
- ave. eval. (average of evaluation point) [1, 6]: 5.2
- positive ratio [1, 6]: 100
- weight of individual ([2]; 8th day): 472 and 420 and 444 and 453 and 440
- weight, group average ([2]; 8th day): 446
- weight of individual ([2]; 15th day): 521 and 426 and 470 and 496 and 485
- weight, group average ([2]; 15th day): 480
- weight of individual ([2]; 22nd day): 572 and 485 and 521 and 536 and 529
- weight, group average ([2]; 22nd day): 529
- weight of individual ([2]; 25th day): 590 and 481 and 533 and 544 and 541
- weight, group average ([2]; 25th day): 538
- weight of individual ([2]; first day): 430 and 375 and 396 and 416 and 395
- weight, group average ([2]; first day): 402
- weight of individual ([2]; starting date of previous test): 356 and 333 and 354 and 369 and 344
- weight, group average ([2]; starting date of previous test): 349
